Assay results taken from ChEMBL document CHEMBL1255557, “Heterobiaryl and heterobiaryl ether derived M5 positive allosteric modulators” (Bioorg Med Chem Lett, 2010).
Activity calls are given as the source filed them. The rule behind the calls is not given here.

Key:
[1] = biological target: T1, Muscarinic acetylcholine receptor M5 (Homo sapiens) (UniProt P08912); assay: Positive allosteric modulation of muscarinic M5 receptor expressed in CHO cells assessed as potentiation of acetylcholine-induced intracellular calcium mobilization at 10 uM after 1 hr by FLIPR assay; format: functional, cell-based
T1 sequence (whole entry): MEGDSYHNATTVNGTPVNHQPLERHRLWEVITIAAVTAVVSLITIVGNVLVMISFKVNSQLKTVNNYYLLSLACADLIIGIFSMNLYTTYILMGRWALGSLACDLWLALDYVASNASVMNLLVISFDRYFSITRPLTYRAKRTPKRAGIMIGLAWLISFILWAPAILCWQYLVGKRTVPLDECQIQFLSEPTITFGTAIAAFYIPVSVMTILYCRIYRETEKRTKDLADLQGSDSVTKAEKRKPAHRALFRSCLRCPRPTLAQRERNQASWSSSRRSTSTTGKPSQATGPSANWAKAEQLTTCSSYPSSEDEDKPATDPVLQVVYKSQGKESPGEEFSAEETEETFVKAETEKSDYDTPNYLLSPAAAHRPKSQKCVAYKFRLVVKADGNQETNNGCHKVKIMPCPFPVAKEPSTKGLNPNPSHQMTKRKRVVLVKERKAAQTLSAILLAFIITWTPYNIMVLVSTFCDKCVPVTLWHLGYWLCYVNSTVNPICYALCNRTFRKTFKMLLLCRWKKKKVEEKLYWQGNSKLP

[2] = biological target: T2, Muscarinic acetylcholine receptor M5 (Homo sapiens, UniProt P08912); assay: Positive allosteric modulation of muscarinic M5 receptor expressed in CHO cells assessed as effect on acetylcholine-induced intracellular calcium mobilization after 1 hr by FLIPR assay; format: functional, cell-based
T2 sequence (P08912 whole entry): T1 sequence (whole entry)

[3] = biological target: T1, Muscarinic acetylcholine receptor M5 (Homo sapiens); assay: Positive allosteric modulation of muscarinic M5 receptor expressed in CHO cells assessed as effect on acetylcholine-induced intracellular calcium mobilization after 1 hr by FLIPR assay relative to acetylcholine; format: functional, cell-based
[4] = biological target: T1, Muscarinic acetylcholine receptor M5 (Homo sapiens); assay: Positive allosteric modulation of muscarinic M5 receptor expressed in CHO cells assessed as potentiation of acetylcholine-induced intracellular calcium mobilization at 30 uM after 1 hr by FLIPR assay relative to acetylcholine; format: functional, cell-based
[5] = Partition coefficient, log P of the compound; format: physicochemical; details: octanol/water

SMILES: O=C1C(=O)N(Cc2ccc(-c3ccccc3)cc2)c2ccc(OCc3ccc(F)cc3)cc21
- Activity [1]: inactive

SMILES: CCCCOc1ccc2c(c1)C(=O)C(=O)N2Cc1ccc(-c2ccccc2)cc1
- Activity [1]: inactive

SMILES: COc1cccc(COc2ccc3c(c2)C(=O)C(=O)N3Cc2ccc(-c3ccccc3)cc2)c1
- Activity [1]: inactive

SMILES: COc1ccccc1COc1ccc2c(c1)C(=O)C(=O)N2Cc1ccc(-c2ccccc2)cc1
- Activity [1]: inactive

SMILES: O=C1C(=O)N(Cc2ccc(-c3ccccc3)cc2)c2ccc(OCc3c(F)cccc3F)cc21
- Activity [1]: inactive

SMILES: O=C1C(=O)N(Cc2ccc(-c3ccccc3)cc2)c2ccc(OCc3cccc(F)c3)cc21
- Activity [1]: inactive

SMILES: O=C1C(=O)N(Cc2ccc(-c3cccnc3)cc2)c2ccc(OC(F)(F)F)cc21
- EC50 [2]: 1.6 µM
- Emax [3]: 51%

SMILES: CC(C)COc1ccc2c(c1)C(=O)C(=O)N2Cc1ccc(-c2ccccc2)cc1
- Activity [1]: inactive

SMILES: Cc1ccccc1CCOc1ccc2c(c1)C(=O)C(=O)N2Cc1ccc(-c2ccccc2)cc1
- Activity [1]: inactive

SMILES: CCCOc1ccc2c(c1)C(=O)C(=O)N2Cc1ccc(-c2ccccc2)cc1
- Activity [1]: inactive

SMILES: O=C1C(=O)N(Cc2ccc(Oc3ccccn3)cc2)c2ccc(OC(F)(F)F)cc21
- EC50 [2]: 3.2 µM
- Emax [3]: 46%

SMILES: O=C1C(=O)N(Cc2ccc(-c3ccccc3)cc2)c2ccc(OCCN3CCCC3)cc21
- Activity [1]: inactive

SMILES: O=C1C(=O)N(Cc2ccc(-c3ccccc3)cc2)c2ccc(OCC3CCC3)cc21
- Activity [1]: inactive

SMILES: O=C1C(=O)N(Cc2ccc(Oc3ccccc3)cc2)c2ccc(OC(F)(F)F)cc21
- fold change (FC) [4]: 5

SMILES: O=C1C(=O)N(Cc2ccc(Cl)nc2)c2ccc(OC(F)(F)F)cc21
- EC50 [2]: 2.4 µM
- Emax [3]: 80%

SMILES: CC1CCCN(COc2ccc3c(c2)C(=O)C(=O)N3Cc2ccc(-c3ccccc3)cc2)C1 (stereo unspecified)
- Activity [1]: inactive

SMILES: Cc1ccccc1COc1ccc2c(c1)C(=O)C(=O)N2Cc1ccc(-c2ccccc2)cc1
- Activity [1]: inactive

SMILES: O=C1C(=O)N(Cc2ccc(-c3ccccc3)cc2)c2ccc(OCc3ccccc3Cl)cc21
- Activity [1]: inactive

SMILES: O=C1C(=O)N(Cc2ccc(-c3ccccc3)cc2F)c2ccc(OC(F)(F)F)cc21
- EC50 [2]: 5.9 µM
- Emax [3]: 63%

SMILES: O=C1C(=O)N(Cc2ccc(Oc3nccs3)cc2)c2ccc(OC(F)(F)F)cc21
- EC50 [2]: 2.8 µM
- Emax [3]: 58%

SMILES: O=C1C(=O)N(Cc2cccc(-c3ccccc3)c2)c2ccc(OC(F)(F)F)cc21
- EC50 [2]: > 30 µM

SMILES: O=C1C(=O)N(Cc2ccc(-c3ccncc3)nc2)c2ccc(OC(F)(F)F)cc21
- EC50 [2]: 4.4 µM
- Emax [3]: 50%

SMILES: O=C1C(=O)N(Cc2ccc(-c3ccccc3)cc2)c2ccc(OCc3cccc(OC(F)(F)F)c3)cc21
- Activity [1]: inactive

SMILES: O=C1C(=O)N(Cc2ccc(-c3ccccc3)cc2)c2ccc(OCc3ccccc3C(F)(F)F)cc21
- Activity [1]: inactive

SMILES: COc1ccc(COc2ccc3c(c2)C(=O)C(=O)N3Cc2ccc(-c3ccccc3)cc2)cc1
- Activity [1]: inactive

SMILES: O=C1C(=O)N(Cc2ccc(-c3cccnc3)cn2)c2ccc(OC(F)(F)F)cc21
- EC50 [2]: > 30 µM

SMILES: O=C1C(=O)N(Cc2ccc(-c3cccnc3)nc2)c2ccc(OC(F)(F)F)cc21
- EC50 [2]: 4 µM
- logP [5]: 3
- Emax [3]: 53%

SMILES: O=C1C(=O)N(Cc2ccc(-c3ccccc3)cc2)c2ccc(OCC(F)(F)F)cc21
- Activity [1]: inactive

SMILES: O=C1C(=O)N(Cc2ccc(-c3ccccc3)cc2)c2ccc(OCc3cc(F)ccc3F)cc21
- Activity [1]: inactive

SMILES: O=C1C(=O)N(Cc2ccc(-c3ccccc3)cc2)c2ccc(OCc3ccncc3)cc21
- Activity [1]: inactive

SMILES: O=C1C(=O)N(Cc2ccc(-c3ccccc3)cc2)c2ccc(OCc3cccc(Cl)c3)cc21
- Activity [1]: inactive

SMILES: O=C1C(=O)N(Cc2ccc3c(c2)OCO3)c2ccc(OC(F)(F)F)cc21
- EC50 [2]: 3.2 µM
- Emax [3]: 90%

SMILES: O=C1C(=O)N(Cc2ccc(-c3ccccc3)cc2)c2ccc(Oc3ncccn3)cc21
- Activity [1]: inactive

SMILES: O=C1C(=O)N(Cc2ccc(-c3ccccc3)cc2)c2ccc(OCCc3ccccc3C(F)(F)F)cc21
- Activity [1]: inactive

SMILES: O=C1C(=O)N(Cc2ccc(-c3ccccc3)cc2)c2ccc(OCc3ccc(OC(F)(F)F)cc3)cc21
- Activity [1]: inactive

SMILES: O=C1C(=O)N(Cc2ccc(-c3cncnc3)cc2)c2ccc(OC(F)(F)F)cc21
- EC50 [2]: 2.1 µM
- Emax [3]: 53%

SMILES: COc1ccc(COc2ccc3c(c2)C(=O)C(=O)N3Cc2ccc(-c3ccccc3)cc2)cc1C(F)(F)F
- Activity [1]: inactive

SMILES: O=C1C(=O)N(Cc2ccc(-c3ccccc3)cc2)c2ccc(OCc3ccc(F)cc3F)cc21
- Activity [1]: inactive

SMILES: CN(C)CCOc1ccc2c(c1)C(=O)C(=O)N2Cc1ccc(-c2ccccc2)cc1
- Activity [1]: inactive

SMILES: O=C1C(=O)N(Cc2ccc(-c3ccccc3)cc2)c2ccc(OCCN3CCOCC3)cc21
- Activity [1]: inactive

SMILES: COc1cccc(Oc2ccc(CN3C(=O)C(=O)c4cc(OC(F)(F)F)ccc43)cc2)n1
- EC50 [2]: 2.2 µM
- Emax [3]: 51%

SMILES: O=C1C(=O)N(Cc2ccc(-c3ccccc3)cc2)c2ccc(OCc3ccc(Cl)cc3)cc21
- Activity [1]: inactive

SMILES: O=C1C(=O)N(Cc2ccc(-c3ccncc3)cn2)c2ccc(OC(F)(F)F)cc21
- EC50 [2]: > 30 µM

SMILES: COc1ccc2c(c1)C(=O)C(=O)N2Cc1ccc(-c2ccccc2)cc1
- Activity [1]: inactive

SMILES: O=C1C(=O)N(Cc2ccc(-c3ccccc3)cc2)c2ccc(OCc3ccccc3)cc21
- Activity [1]: inactive

SMILES: O=C1C(=O)N(Cc2ccc(-c3ccccc3)cc2)c2ccc(OCC3CCCCC3)cc21
- Activity [1]: inactive

SMILES: O=C1C(=O)N(Cc2ccc(-c3ccccc3)cc2)c2ccc(OC(F)(F)F)cc21
- logP [5]: 4.6
- fold change (FC) [4]: 10

SMILES: O=C(O)COc1ccc2c(c1)C(=O)C(=O)N2Cc1ccc(-c2ccccc2)cc1
- Activity [1]: inactive

SMILES: O=C1C(=O)N(Cc2ccc(-c3ccccc3)cc2)c2ccc(OCCc3ccccc3Cl)cc21
- Activity [1]: inactive

SMILES: O=C1C(=O)N(Cc2ccc(-c3ccccc3)cc2)c2ccc(OCc3cccc(C(F)(F)F)c3)cc21
- Activity [1]: inactive

SMILES: O=C1C(=O)N(Cc2ccc(-c3ccncc3)cc2)c2ccc(OC(F)(F)F)cc21
- EC50 [2]: 2.8 µM
- Emax [3]: 60%

SMILES: O=C1C(=O)N(Cc2ccc(-c3ccccc3)cc2)c2ccc(OCc3cccnc3)cc21
- Activity [1]: inactive

SMILES: CCOc1ccc2c(c1)C(=O)C(=O)N2Cc1ccc(-c2ccccc2)cc1
- Activity [1]: inactive

SMILES: O=C1C(=O)N(Cc2ccc(-c3ccccc3)cc2)c2ccc(OCCC(F)(F)F)cc21
- Activity [1]: inactive

SMILES: O=C1C(=O)N(Cc2ccc(-c3ccccc3)cc2)c2ccc(OCCc3ccccc3F)cc21
- Activity [1]: inactive

SMILES: O=C1C(=O)N(Cc2cccc(Oc3ccccc3)c2)c2ccc(OC(F)(F)F)cc21
- EC50 [2]: > 30 µM

SMILES: O=C1C(=O)N(Cc2ccc(-c3ccccc3)cc2)c2ccc(OCc3ccccc3F)cc21
- Activity [1]: inactive

SMILES: O=C1C(=O)N(Cc2ccc(-c3ccccc3)cc2)c2ccc(Oc3ccccn3)cc21
- Activity [1]: inactive

SMILES: O=C1C(=O)N(Cc2ccc(-c3ccccc3)cc2)c2ccc(OCc3ccc(C(F)(F)F)cc3)cc21
- Activity [1]: inactive

SMILES: O=C1C(=O)N(Cc2c(F)cc(-c3ccccc3)cc2F)c2ccc(OC(F)(F)F)cc21
- EC50 [2]: > 30 µM

SMILES: O=C1C(=O)N(Cc2ccc(-c3ccccc3)cc2)c2ccc(OCc3ccccn3)cc21
- Activity [1]: inactive

SMILES: O=C1C(=O)N(Cc2ccc(-c3ccccc3)cn2)c2ccc(OC(F)(F)F)cc21
- EC50 [2]: 3.1 µM
- Emax [3]: 47%
